Laboratory results reported in patent US20170291905A1, “ARGININE […] INHIBITORS AND USES THEREOF” (Epizyme, Inc., priority 2014, published 2017).

Biological target: T1, PRMT1 (Homo sapiens, UniProt Q99873)
T1 construct: host or cells: RKO cells
Assay: RKO methylation assay, In Cell Western (ICW) for mono-methyl arginine and DNA content
Format: cell-based
Conditions: RKO cells, 72 hours, mono-methyl arginine signal normalised to DRAQ5, percent activation
Excerpt: RKO Methylation Assay RKO adherent cells were purchased from ATCC (American Type Culture Collection), Manassas, Va., USA. DMEM/Glutamax medium, penicillin-streptomycin, heat inactivated fetal bovine serum, 0.05% trypsin and D-PBS were purchased from Life Technologies, Grand Island, N.Y., USA. Odyssey blocking buffer, 800CW goat anti-rabbit IgG (H+L) antibody, and Licor Odyssey infrared scanner were purchased from Licor Biosciences, Lincoln, Nebr., USA. Mono-methyl arginine antibody was purchased from Cell Signaling Technology, Danvers, Mass., USA. Methanol was purchased from VWR, Franklin, Mass., USA. 10% Tween 20 was purchased from KPL, Inc., Gaithersburg, Md., USA. DRAQ5 was purchased from Biostatus Limited, Leicestershire, UK. RKO adherent cells were maintained in growth medium (DMEM/Glutamax medium supplemented with 10% v/v heat inactivated fetal bovine serum and 100 units/mL penicillin-streptomycin) and cultured at 37° C. under 5% CO2. Cell Treatment, in Cell Western (ICW) for Detection of Mono-Methyl Arginine and DNA Content. RKO cells were seeded in assay medium at a concentration of 20,000 cells per mL to a poly-D-lysine coated 384 well culture plate (BD Biosciences 356697) with 50 μL per well. Compound (100 nL) from a 96-well source plate was added directly to 384 well cell plate. Plates were incubated at 37° C., 5% CO2 for 72 hours. After three days of incubation, plates were brought to room temperature outside of the incubator for ten minutes and blotted on paper towels to remove cell media. 50 μL of ice cold 100% methanol was added directly to each well and incubated for 30 min at room temperature. After 30 min, plates were transferred to a Biotek EL406 plate washer and washed 2 times with 100 μL per well of wash buffer (1×PBS). Next 60 μL per well of Odyssey blocking buffer (Odyssey Buffer with 0.1% Tween 20 (v/v)) were added to each plate and incubated 1 hour at room temperature. Blocking buffer was removed and 20 μL per well of primary antibody was added (mono-methyl arginine diluted 1:200 in Odyssey buffer with 0.1% Tween 20 (v/v)) and plates were incubated overnight (16 hours) at 4° C. Plates were washed 5 times with 100 μL per well of wash buffer. Next 20 μL per well of secondary antibody was added (1:200 800CW goat anti-rabbit IgG (H+L) antibody, 1:1000 DRAQ5 (Biostatus limited) in Odyssey buffer with 0.1% Tween 20 (v/v)) and incubated for 1 hour at room temperature. The plates were washed 5 times with 100 μL per well wash buffer then 2 times with 100 μL per well of water. Plates were allowed to dry at room temperature then imaged on the Licor Odyssey machine which measures integrated intensity at 700 nm and 800 nm wavelengths. Both 700 and 800 channels were scanned. […] Each plate included fourteen control wells of DMSO only treatment (minimum activation) as well as fourteen control wells for maximum activation treated with 20 μM of a reference compound. The average of the ratio values for each control type was calculated and used to determine the percent activation for each test well in the plate. Reference compound was serially diluted three-fold in DMSO for a total of nine test concentrations, beginning at 20 μM. Percent activation was determined and EC30 curves were generated using triplicate wells per concentration of compound.

T1 sequence (Q99873 whole entry): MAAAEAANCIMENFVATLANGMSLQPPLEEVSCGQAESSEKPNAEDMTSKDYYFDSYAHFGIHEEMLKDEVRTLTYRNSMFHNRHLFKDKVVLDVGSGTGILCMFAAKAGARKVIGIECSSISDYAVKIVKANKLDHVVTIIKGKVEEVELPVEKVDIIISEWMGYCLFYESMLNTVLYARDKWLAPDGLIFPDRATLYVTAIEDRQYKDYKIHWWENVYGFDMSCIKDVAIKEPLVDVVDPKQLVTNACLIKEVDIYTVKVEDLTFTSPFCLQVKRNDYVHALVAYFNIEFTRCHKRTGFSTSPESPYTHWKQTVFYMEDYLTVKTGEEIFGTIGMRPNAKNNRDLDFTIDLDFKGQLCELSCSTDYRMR

Question: For `CNCCN(C)Cc1n[nH]cc1[C@H]1CC[C@]2(CC1)CC(C)(C)CO2` [compound 116], which “PRMT1 RGG ICW EC30” value is on record?
Answer: 0.1545 µM

Question: With `CNCCN(C)Cc1c(C)noc1[C@H]1CC[C@]2(CC1)CC(C)(C)CO2` [compound 114] as the compound, how does the “PRMT1 RGG ICW EC30” value read?
Answer: >10 µM

Question: Which “PRMT1 RGG ICW EC30” value does the source give for `CN(CCN)Cc1c[nH]nc1[C@H]1CC[C@@]2(CC1)CC(C)(C)CO2` [compound 105] here?
Answer: 0.01212 µM

Question: How did the “PRMT1 RGG ICW EC30” value turn out when `CNCCN(C)Cc1c[nH]nc1C1C[C@@H](C(=O)N(C)CC(C)C)C(C)(C)[C@H](C(=O)N(C)CC(C)C)C1` (stereo partly shown) [compound 12] was run?
Answer: >5.0 µM

Question: `CNCCN(C)Cc1sc(C)nc1[C@H]1CC[C@]2(CC1)CC(C)(C)CO2` [compound 100] was tested. Which “PRMT1 RGG ICW EC30” value did it give?
Answer: 0.07586 µM

Question: `CNCCN(C)Cc1c[nH]nc1[C@H]1CC[C@@H](COCC(F)(F)F)CC1` [compound 23, N1,N2-dimethyl-N1-((3-((1s,4s)-4-((2,2,2-trifluoroethoxy)methyl)cyclohexyl)-1H-pyrazol-4-yl)methyl)ethane-1,2-diamine] was tested. Which “PRMT1 RGG ICW EC30” value did it give?
Answer: 1.721 µM

Question: With `CNCCN(C)Cc1c[nH]nc1[C@H]1CC[C@@]2(CCCCO2)CC1` [compound 3] as the compound, how does the “PRMT1 RGG ICW EC30” value read?
Answer: 0.1147 µM

Question: `CCOCC1(COCC)CCC(c2nn(C)cc2CN(C)CCNC)CC1` [compound 122] was tested. Which “PRMT1 RGG ICW EC30” value did it give?
Answer: 0.02211 µM

Question: How did the “PRMT1 RGG ICW EC30” value turn out when `CNCCN(C)Cc1c[nH]nc1C1=CCC(CF)(CF)CC1` [compound 15, N-((3-(4,4-bis(fluoromethyl)cyclohex-1-en-1-yl)-1H-pyrazol-4-yl)methyl)-N1,N2-dimethylethane-1,2-diamine] was run?
Answer: 0.3611 µM

Question: Which “PRMT1 RGG ICW EC30” value does the source give for `CN(CCN)Cc1nn(C)cc1[C@H]1CC[C@@]2(CC1)CC(C)(C)CO2` [compound 80] here?
Answer: 0.06159 µM

Question: For `CCOC[C@@H]1CC(c2n[nH]cc2CN(C)CCNC)CCC1(C)C` (stereo partly drawn) [compound 31, {2-[({3-[(3R)-3-(ethoxymethyl)-4,4-dimethylcyclohexyl]-1H-pyrazol-4-yl}methyl)(methyl)amino]ethyl}(methyl)amine], which “PRMT1 RGG ICW EC30” value is on record?
Answer: 0.4536 µM

Question: How did the “PRMT1 RGG ICW EC30” value turn out when `CNCCN(C)Cc1nc(C)sc1[C@H]1CC[C@]2(CC1)CC(C)(C)CO2` [compound 99] was run?
Answer: 0.09553 µM

Question: For `CNCCN(C)Cc1c[nH]nc1[C@@H]1CC[C@H](OCCCOC)C2(CCCC2)C1` (racemic) [compound 27, N1-((3-((7R,10S)-10-(3-methoxypropoxy)spiro[4.5]decan-7-yl)-1H-pyrazol-4-yl)methyl)-N1,N2-dimethylethane-1,2-diamine], which “PRMT1 RGG ICW EC30” value is on record?
Answer: 0.2164 µM

Question: Which “PRMT1 RGG ICW EC30” value does the source give for `CNCCN(C)Cc1c[nH]nc1[C@H]1CC[C@H](COCC(F)(F)F)CC1` [compound 24, N1,N2-dimethyl-N1-((3-((1r,4r)-4-((2,2,2-trifluoroethoxy)methyl)cyclohexyl)-1H-pyrazol-4-yl)methyl)ethane-1,2-diamine] here?
Answer: 0.1616 µM

Question: Which “PRMT1 RGG ICW EC30” value does the source give for `CNCCN(C)Cc1c[nH]nc1[C@@H]1CC[C@@H](OCCCOC)C2(CCCC2)C1` (racemic) [compound 26, N1-((3-((7R,10R)-10-(3-methoxypropoxy)spiro[4.5]decan-7-yl)-1H-pyrazol-4-yl)methyl)-N1,N2-dimethylethane-1,2-diamine] here?
Answer: 0.2172 µM

Question: `CNCCN(C)Cc1c[nH]nc1C1CCC(C)(C)[C@H](COCCCOC)C1` (stereo partly drawn) [compound 30, {2-[({3-[(3R)-3-[(3-methoxypropoxy)methyl]-4,4-dimethylcyclohexyl]-1H-pyrazol-4-yl}methyl)(methyl)amino]ethyl}(methyl)amine] was tested. Which “PRMT1 RGG ICW EC30” value did it give?
Answer: 0.209 µM

Question: With `CNCCN(C)Cc1c[nH]nc1[C@H]1CC[C@]2(CCN(CCC(C)C)C2=O)CC1` [compound 10] as the compound, how does the “PRMT1 RGG ICW EC30” value read?
Answer: 2.001 µM

Question: `CNCCN(C)Cc1c[nH]nc1C1CCC(C)(C)[C@H](CO)C1` (stereo partly drawn) [compound 32, [(1R)-2,2-dimethyl-5-[4-({methyl[2-(methylamino)ethyl]amino}methyl)-1H-pyrazol-3-yl]cyclohexyl]methanol] was tested. Which “PRMT1 RGG ICW EC30” value did it give?
Answer: 0.5179 µM

Question: For `CNCCN(C)Cc1nn(C)nc1[C@H]1CC[C@@]2(CC1)CC(C)(C)CO2` [compound 64], which “PRMT1 RGG ICW EC30” value is on record?
Answer: 0.119 µM

Question: `CCN(C)C(=O)C1CC(c2n[nH]cc2CN(C)CCNC)CC(C(=O)NCCC(C)C)C1(C)C` (stereo not shown) [compound 14, N1-ethyl-N3-isopentyl-N1,2,2-trimethyl-5-(4-((methyl(2-(methylamino)ethyl)amino)methyl)-1H-pyrazol-3-yl)cyclohexane-1,3-dicarboxamide] was tested. Which “PRMT1 RGG ICW EC30” value did it give?
Answer: >5.0 µM

Question: For `CNCCN(C)Cc1c[nH]nc1C1CCC2(CC1)CC(C)(C)OC2=O` (stereo not shown) [compound 125], which “PRMT1 RGG ICW EC30” value is on record?
Answer: 0.01488 µM

Question: With `CNCCN(C)Cc1ncsc1[C@H]1CC[C@@]2(CC1)CC(C)(C)CO2` [compound 83] as the compound, how does the “PRMT1 RGG ICW EC30” value read?
Answer: 0.05796 µM

Question: With `CNCCN(C)Cc1c[nH]nc1[C@H]1CC[C@@]2(CCN(CCC(C)C)C2=O)CC1` [compound 11, (5r,8r)-2-isopentyl-8-(4-((methyl(2-(methylamino)ethyl)amino)methyl)-1H-pyrazol-3-yl)-2-azaspiro[4.5]decan-1-one] as the compound, how does the “PRMT1 RGG ICW EC30” value read?
Answer: 0.03417 µM

Question: For `CNCCN(C)Cc1scnc1[C@H]1CC[C@@]2(CC1)CC(C)(C)CO2` [compound 62], which “PRMT1 RGG ICW EC30” value is on record?
Answer: 0.00696 µM

Question: For `CNCCN(C)Cc1c[nH]nc1C1C[C@H](C(=O)NCCOC)C(C)(C)[C@H](C(=O)NCCOC)C1` (stereo partly shown) [compound 13], which “PRMT1 RGG ICW EC30” value is on record?
Answer: >5.0 µM

Question: How did the “PRMT1 RGG ICW EC30” value turn out when `CNCCN(C)Cc1c[nH]nc1[C@H]1CC[C@@]2(CC1)COC(C)(C)C2` [compound 126, N1-((3-((5r,8r)-3,3-dimethyl-2-oxaspiro[4.5]decan-8-yl)-1H-pyrazol-4-yl)methyl)-N1,N2-dimethylethane-1,2-diamine] was run?
Answer: 0.01526 µM

Question: For `CCOCC1(COCC)CCC(c2n[nH]cc2CN(C)CCN)CC1` [compound 123], which “PRMT1 RGG ICW EC30” value is on record?
Answer: 0.0178 µM

Question: For `CN(CCN)Cc1c[nH]nc1[C@H]1CC[C@]2(CC1)CC(C)(C)CO2` [compound 106], which “PRMT1 RGG ICW EC30” value is on record?
Answer: 0.04527 µM

Question: For `CCCOCC1(COCCC)CCC(c2n[nH]cc2CN(C)CCNC)CC1` [compound 36, N^1-((3-(4,4-bis(propoxymethyl)cyclohexyl)-1H-pyrazol-4-yl)methyl)-N^1,N^2-dimethylethane-1,2-diamine], which “PRMT1 RGG ICW EC30” value is on record?
Answer: 0.06617 µM

Question: `CNCCN(C)Cc1c[nH]nc1C1CCC(C)(C)[C@H](COCCOC)C1` (stereo partly drawn) [compound 35, {2-[({3-[(3R)-3-[(2-methoxyethoxy)methyl]-4,4-dimethylcyclohexyl]-1H-pyrazol-4-yl}methyl)(methyl)amino]ethyl}(methyl)amine] was tested. Which “PRMT1 RGG ICW EC30” value did it give?
Answer: 0.3301 µM

Question: For `CNCCN(C)Cc1nn(C)cc1[C@H]1CC[C@@]2(CC1)CC(C)(C)CO2` [compound 81], which “PRMT1 RGG ICW EC30” value is on record?
Answer: 0.09594 µM

Question: Which “PRMT1 RGG ICW EC30” value does the source give for `CCC1(CC)CC2(CCC(c3n[nH]cc3CN(C)CCNC)CC2)N(C)C1=O` (stereo not shown) [compound 22, 3,3-diethyl-1-methyl-8-(4-((methyl(2-(methylamino)ethyl)amino)methyl)-1H-pyrazol-3-yl)-1-azaspiro[4.5]decan-2-one] here?
Answer: 1.835 µM

Question: For `CNCCN(C)Cc1c[nH]nc1C1CCC(C)(C)[C@H](OCC(C)C)C1` (stereo partly drawn) [compound 20, ({3-[(3R)-4,4-dimethyl-3-(2-methylpropoxy)cyclohexyl]-1H-pyrazol-4-yl}methyl)(methyl)[2-(methylamino)ethyl]amine], which “PRMT1 RGG ICW EC30” value is on record?
Answer: 0.2043 µM

Question: How did the “PRMT1 RGG ICW EC30” value turn out when `CNCCN(C)Cc1c[nH]nc1C1CC(COCC2CC2)CC(COCC2CC2)C1` (stereo not shown) [compound 2] was run?
Answer: >5.0 µM

Question: Which “PRMT1 RGG ICW EC30” value does the source give for `CNCCN(C)Cc1c(Cl)ncn1[C@H]1CC[C@]2(CC1)CC(C)(C)CO2` [compound 97] here?
Answer: >10 µM

Question: For `CNCCN(C)Cc1nn[nH]c1[C@H]1CC[C@@]2(CC1)CC(C)(C)CO2` [compound 67], which “PRMT1 RGG ICW EC30” value is on record?
Answer: 0.0339 µM

Question: For `Cc1[nH]nc(C2CCC3(CC2)CC(C)(C)CO3)c1CN(C)CCN` (stereo not shown) [compound 59], which “PRMT1 RGG ICW EC30” value is on record?
Answer: 0.1931 µM

Question: `CNCCN(C)Cc1nn(C)cc1[C@H]1CC[C@]2(CC1)CC(C)(C)CO2` [compound 103] was tested. Which “PRMT1 RGG ICW EC30” value did it give?
Answer: 0.5974 µM

Question: Which “PRMT1 RGG ICW EC30” value does the source give for `Cc1[nH]nc([C@H]2CC[C@]3(CC2)CC(C)(C)CO3)c1CN(C)CCN` [compound 52, N1-((3-((5r,8r)-3,3-dimethyl-1-oxaspiro[4.5]decan-8-yl)-5-methyl-1H-pyrazol-4-yl)methyl)-N1-methylethane-1,2-diamine] here?
Answer: 0.3736 µM

Question: For `CNCCN(C)Cc1nc(C)sc1[C@H]1CC[C@@]2(CC1)CC(C)(C)CO2` [compound 77], which “PRMT1 RGG ICW EC30” value is on record?
Answer: 0.05311 µM
